Test results taken from paper PMC10180520, “Phytochemical Analysis and Profiling of Antioxidants and Anticancer Compounds from Tephrosia purpurea (L.) subsp. apollinea Family Fabaceae” (Molecules, 2023).
Converted amounts (≈) assume the structure as drawn.

Tests used:
[1] = DPPH radical scavenging assay; assay type: biochemical
Protocol: Each methanolic extract concentration (1 mL) was added to 3 mL of 0.1 mM DPPH solubilized in methanol, followed by shaking and placing it into a dark chamber for 30 min. When DPPH reacts with an H-donating antioxidant, it is scavenged, thereby resulting in a decrease in absorbance. The optical density of each concentration was measured at 517 nm in a UV-Vis spectrophotometer. Ascorbic acid was used as an antioxidant standard. All the values were measured in triplicate.

[2] = ABTS radical scavenging assay; assay type: biochemical
Protocol: Distilled water was used to bring up a 50-mL volumetric flask to mark after dissolving 192 mg of 2,2′-azino-bis(3-ethylbenzothiazoline-6-sulfonic acid) (ABTS) in a small volume of water and transferring it to the flask, followed by addition of 1 mL of this solution to 17 μL 0.14 M K2S2O8, and incubation in darkness for 24 h. To prepare the final ABTS dilution for the T. purpurea subsp. apollinea extract, 1 mL of reaction mixture was added to 49 mL of methanol. Then, 0.190 mL of newly made ABTS solution was mixed with 0.010 mL of plant extract in a 96-well plate and kept in the dark for 30 min. Thereafter, a decrease in ABTS OD was read at 734 nm in a FluoStar Omega microplate reader. Trolox was used as an antioxidant standard. All the values were measured in triplicate.

[3] = test system: breast cancer (MCF7); assay: MTT assay, breast cancer (MCF7); assay type: cell-based
Protocol: (§1) Breast cancer cell lines (MCF7), osteosarcoma (MG63), breast ductal carcinoma (T47D), leukemia (U937), as well as HeLa, PC3, and healthy pulmonary fibroblast were supplied by the tissue culture laboratory at Vacsera, Egypt. The culturing procedure was maintained sterile, utilizing a laminar airflow cabinet. The cells were cultured in Roswell Park Memorial Institute medium (RPMI 1640). The medium was provided with antibiotics (streptomycin and penicillin) as well as antifungal agents (amphotericin B) and L-glutamine. It was also supplemented with 10% heat-inactivated fetal bovine serum.
(§2) Cell viability was measured using a 3-(4,5-dimethylthiazol-2-yl)-2,5-diphenyl-2H-tetrazolium bromide (MTT) assay. The principle of the MTT assay is that through mitochondrial reduction, purple-colored crystals are produced from the yellowish MTT [80]. […]
(§3) Using a growth medium, serial dilutions of the dimethyl sulfoxide (DMSO)-solubilized extract were produced at concentrations of 31.25, 62.5, 125, 250, 500, and 1000 µg/mL [80]. […] A microplate reader was used to measure the optical density of the formazan solution at 560 nm, with values corrected using a background reference λ of 620 nm. […]
(§4) The IC50 profiles of methanol extract of T. purpurea subsp. apollinea and a positive control for cancer and healthy cell lines were determined with GraphPad Prism version 7 (GraphPad Software Inc., San Diego, CA, USA). […]

[4] = test system: osteosarcoma (MG63); assay: MTT assay, osteosarcoma (MG63); assay type: cell-based
Protocol: as §1, §2, §3, §4

[5] = test system: breast ductal carcinoma (T47D); assay: MTT assay, breast ductal carcinoma (T47D); assay type: cell-based
Protocol: as §1, §2, §3, §4

[6] = test system: cervical cancer (HeLa); assay: MTT assay, cervical cancer (HeLa); assay type: cell-based
Protocol: as §1, §2, §3, §4

[7] = test system: prostate cancer (PC3); assay: MTT assay, prostate cancer (PC3); assay type: cell-based
Protocol: as §1, §2, §3, §4

[8] = test system: leukemia (U937); assay: MTT assay, leukemia (U937); assay type: cell-based
Protocol: as §1, §2, §3, §4

[9] = test system: normal human fetal lung fibroblast (WI38); assay: MTT assay, normal human fetal lung fibroblast (WI38); assay type: cell-based; conditions: WI-38, WI38 normal cells, 24 h
Protocol: as §1, §2, §3, §4

[10] = test system: MCF7; assay: Light microscopy of treated cells, MCF7; assay type: cell-based; conditions: MCF7, 250 µg/mL (Figure 8)
From the text: (§5) Morphologies of cells treated with the various methanol T. purpurea subsp. apollinea extract concentrations were investigated under light microscopy at 10× objective lens, total magnification = 100×.

[11] = test system: MG63; assay: Light microscopy of treated cells, MG63; assay type: cell-based; conditions: MG63, 250 µg/mL (Figure 8)
From the text: as §5

[12] = test system: T47D; assay: Light microscopy of treated cells, T47D; assay type: cell-based; conditions: 250 µg/mL (Figure 8)
From the text: as §5

[13] = test system: HeLa; assay: Light microscopy of treated cells, HeLa; assay type: cell-based; conditions: 250 µg/mL (Figure 8)
From the text: as §5

[14] = test system: PC3; assay: Light microscopy of treated cells, PC3; assay type: cell-based; conditions: PC3, 250 µg/mL (Figure 8)
From the text: as §5

O=C1O[C@H]([C@@H](O)CO)C(O)=C1O [Ascorbic Acid, Ascorbic acid]
DPPH Scavenging% ([1]; Conc. 1.95 µg/mL): 41.8 ± 0.5%
DPPH Scavenging% ([1]; Conc. 3.9 µg/mL): 45.9 ± 0.1%
DPPH Scavenging% ([1]; Conc. 7.8125 µg/mL): 56.2 ± 0.2%
DPPH Scavenging% ([1]; Conc. 15.625 µg/mL): 64.2 ± 0.3%
DPPH Scavenging% ([1]; Conc. 31.25 µg/mL): 71.2 ± 0.2%
DPPH Scavenging% ([1]; Conc. 62.5 µg/mL): 77.9 ± 0.3%
DPPH Scavenging% ([1]; Conc. 125 µg/mL): 86.4 ± 0.3%
DPPH Scavenging% ([1]; Conc. 250 µg/mL): 92.7 ± 0.2%
DPPH Scavenging% ([1]; Conc. 500 µg/mL): 94.5 ± 0.2%
DPPH Scavenging% ([1]; Conc. 1000 µg/mL): 97.1 ± 0.1%
IC50 of DPPH radical scavenging ([1]; mean ± standard deviation): ^a IC50 = 4.8 ± 0.1 μg/mL

Cc1c(C)c2c(c(C)c1O)CCC(C)(C(=O)O)O2 (centres unmarked) [Trolox]
ABTS Scavenging% ([2]; Conc. 0.6 µg/mL): 9.9 ± 0.3%
ABTS Scavenging% ([2]; Conc. 1.3 µg/mL): 18.6 ± 0.4%
ABTS Scavenging% ([2]; Conc. 3.8 µg/mL): 49.6 ± 2.6%
ABTS Scavenging% ([2]; Conc. 6.2 µg/mL): 83.6 ± 1.9%
ABTS Scavenging% ([2]; Conc. 8.8 µg/mL): 92.6 ± 0.2%
IC50 of ABTS radical scavenging ([2]; mean ± standard deviation): ^a IC50 = 2.9 ± 0.1 μg/mL

COc1cccc2c1C(=O)c1c(O)c3c(c(O)c1C2=O)C[C@@](O)(C(=O)CO)C[C@@H]3O[C@H]1C[C@H](N)[C@H](O)[C@H](C)O1 [Doxorubicin]
SI (selectivity index) ([3]; IC50 for WI38 / IC50 for MCF7): 0.5
IC50 ([3]; MCF7, MTT, 24 h): 37.4 ± 0.1 µg/mL (≈ 68.8 µM)
IC50 ([4]; Homo sapiens, MG-63, MG63, MTT, 24 h): 19 ± 0.3 µg/mL (≈ 35 µM)
SI (selectivity index) ([4]; IC50 for WI38 / IC50 for MG63): 1.0
IC50 ([5]; Homo sapiens, T47D, MTT, 24 h): 7 ± 0.1 µg/mL (≈ 12.9 µM)
SI (selectivity index) ([5]; IC50 for WI38 / IC50 for T47D): 2.8
IC50 ([6]; Homo sapiens, HeLa, MTT, 24 h): 41.9 ± 0.1 µg/mL (≈ 77.1 µM)
SI (selectivity index) ([6]; IC50 for WI38 / IC50 for HeLa): 0.4
SI (selectivity index) ([7]; IC50 for WI38 / IC50 for PC3): 0.4
IC50 ([7]; PC3, MTT, 24 h): 46.3 ± 0.2 µg/mL (≈ 85.2 µM)
IC50 ([8]; Homo sapiens, U-937, U937, MTT, 24 h): 41.7 ± 0.9 µg/mL (≈ 76.7 µM)
SI (selectivity index) ([8]; IC50 for WI38 / IC50 for U937): 0.4
IC50 [9]: 20.1 ± 0.1 µg/mL (≈ 37 µM)
cell morphology [10]: rounded and shrunk cells
cell morphology [11]: rounded and shrunk cells
cell morphology [12]: rounded and shrunk cells
cell morphology [13]: rounded and shrunk cells
cell morphology [14]: rounded and shrunk cells
